A short description of data set [1]: The drug is tested on Z-022 corresponding to mouse gut metagenome with ENA study accession number: PRJEB37062 and ENA sample accession number: ERS12561821 for biotransformation under anaerobic condition. The drug concentrations were measured over 9 timepoints collected between 0 and 24 hours of incubation by liquid-chromatography-coupled mass spectrometry (LC–MS). Particulars: 2 µM.

A short description of data set [2]: The drug is tested on Z-004 corresponding to metagenome with ENA study accession number: PRJEB37062 and ENA sample accession number: ERS12561804 for biotransformation under anaerobic condition. The drug concentrations were measured over 9 timepoints collected between 0 and 24 hours of incubation by liquid-chromatography-coupled mass spectrometry (LC–MS). Conditions: 2 µM.

A short description of data set [3]: The drug is tested on WLS-039 corresponding to human gut metagenome with ENA study accession number: PRJEB37062 and ENA sample accession number: ERS12561746 for biotransformation under anaerobic condition. The drug concentrations were measured over 9 timepoints collected between 0 and 24 hours of incubation by liquid-chromatography-coupled mass spectrometry (LC–MS). Conditions: 2 µM.

Data set [4] can be described thus: The drug is tested on Z-011 corresponding to mouse gut metagenome with ENA study accession number: PRJEB37062 and ENA sample accession number: ERS12561811 for biotransformation under anaerobic condition. The drug concentrations were measured over 9 timepoints collected between 0 and 24 hours of incubation by liquid-chromatography-coupled mass spectrometry (LC–MS). Particulars: 2 µM.

The conditions of data set [5]: human gut metagenome, 24 h, 2 µM.
The conditions of data set [6]: human gut metagenome, 24 h, 2 µM. This is another data set of the same source.
For data set [7] the following is noted: human gut metagenome, 24 h, 2 µM. This is another data set of the same source.
Data set [8] can be described thus: The drug is tested on Z-016 corresponding to mouse gut metagenome with ENA study accession number: PRJEB37062 and ENA sample accession number: ERS12561815 for biotransformation under anaerobic condition. The drug concentrations were measured over 9 timepoints collected between 0 and 24 hours of incubation by liquid-chromatography-coupled mass spectrometry (LC–MS). Conditions: 2 µM.

For data set [9] the following is noted: human gut metagenome, 24 h, 2 µM. The source holds these as a separate data set.

The results in this text go back to ChEMBL document CHEMBL5724914, “Linking interpersonal differences in gut microbiota composition and drug biotransformation activity” (2024).
Note: call rule not given here.

With `Nc1nc2ccc(OC(F)(F)F)cc2s1` [RILUZOLE], the “Bacterial Biotransformation” value in [1] is given as “Compound metabolized”; in data set [2] it was “Compound metabolized”; in data set [3] it was “Compound metabolized”; in data set [4], “Compound metabolized”; in data set [5], “Compound NOT metabolized”; in [6] it was “Compound NOT metabolized”. In addition, the “Bacterial Biotransformation” value in data set [7] was “Compound metabolized”; in [8], “Compound NOT metabolized”; in [9], “Compound metabolized”.

For the molecule `CC(C)c1nc(CN(C)C(=O)N[C@H](C(=O)N[C@@H](Cc2ccccc2)C[C@H](O)[C@H](Cc2ccccc2)NC(=O)OCc2cncs2)C(C)C)cs1` [RITONAVIR], the “Bacterial Biotransformation” value in data set [1] is on record as “Compound NOT metabolized”; in data set [2], “Compound NOT metabolized”; in [3], “Compound metabolized”; in data set [4] it was “Compound metabolized”; in [5], “Compound NOT metabolized”; in data set [6], “Compound NOT metabolized”. The “Bacterial Biotransformation” value in data set [7] was “Compound metabolized”; in data set [8] it was “Compound metabolized”; in [9] it was “Compound NOT metabolized”.

Regarding `CC(C)NCC(O)c1ccc(NS(C)(=O)=O)cc1` (centres undefined) [SOTALOL], the “Bacterial Biotransformation” value in [1], in data set [2], in data set [3], in data set [4], in data set [5] and in [6] was “Compound NOT metabolized” each time. Further, the “Bacterial Biotransformation” value in data set [7], in [8] and in [9] was “Compound NOT metabolized” each time.

Regarding `CCN1CCCC1CNC(=O)c1cc(S(N)(=O)=O)ccc1OC` (centres undefined) [SULPIRIDE], the “Bacterial Biotransformation” value in data set [1] is on record as “Compound NOT metabolized”; in [2], “Compound metabolized”; in [3], “Compound NOT metabolized”; in data set [4], “Compound metabolized”; in [5], “Compound NOT metabolized”; in [6] it was “Compound NOT metabolized”. For the same molecule, the “Bacterial Biotransformation” value in data set [7] was “Compound metabolized”; in data set [8], “Compound NOT metabolized”; in [9], “Compound NOT metabolized”.

In the case of `CNS(=O)(=O)Cc1ccc2[nH]cc(CCN(C)C)c2c1.O=C(O)CCC(=O)O` [SUMATRIPTAN SUCCINATE], the “Bacterial Biotransformation” value in [1], in data set [2], in data set [3], in [4], in data set [5] and in data set [6] was “Compound NOT metabolized” in each case. Further, the entries for the “Bacterial Biotransformation” value in data set [7], in [8] and in data set [9] were “Compound metabolized”, “Compound NOT metabolized” and “Compound NOT metabolized”, respectively.

Turning to `Nc1c2c(nc3ccccc13)CCCC2` [TACRINE], the “Bacterial Biotransformation” value in data set [1], in [2], in data set [3], in data set [4], in data set [5] and in data set [6] was “Compound NOT metabolized” each time. For the same molecule, the “Bacterial Biotransformation” value is recorded as “Compound metabolized” in [7], “Compound NOT metabolized” in [8] and “Compound NOT metabolized” in data set [9].

For the molecule `Cc1ccc(S(=O)(=O)NC(=O)NN2CCCCCC2)cc1` [TOLAZAMIDE], the “Bacterial Biotransformation” value in data set [1] is on record as “Compound metabolized”; in data set [2], “Compound metabolized”; in [3] it was “Compound metabolized”; in data set [4], “Compound NOT metabolized”; in data set [5] it was “Compound NOT metabolized”; in [6] it was “Compound NOT metabolized”. Moreover, the “Bacterial Biotransformation” value in [7], in [8] and in data set [9] was “Compound metabolized” throughout.

For `CCOC(=O)[C@H](CCc1ccccc1)N[C@@H](C)C(=O)N1[C@H](C(=O)O)C[C@H]2CCCC[C@@H]21` [TRANDOLAPRIL], the “Bacterial Biotransformation” value in data set [1] is listed as “Compound NOT metabolized”; in [2] it was “Compound metabolized”; in data set [3], “Compound metabolized”; in data set [4], “Compound NOT metabolized”; in data set [5], “Compound NOT metabolized”; in [6], “Compound NOT metabolized”. Besides, the “Bacterial Biotransformation” value in data set [7] is “Compound metabolized”; in data set [8] it was “Compound NOT metabolized”; in data set [9], “Compound metabolized”.

As to `CC(CN(C)C)CN1c2ccccc2CCc2ccccc21.O=C(O)/C=C\C(=O)O` (centres undefined) [TRIMIPRAMINE MALEATE], the “Bacterial Biotransformation” value is “Compound NOT metabolized” in data set [1]; “Compound NOT metabolized” in [2]; “Compound metabolized” in data set [3]; “Compound NOT metabolized” in data set [4]; “Compound metabolized” in data set [5]; “Compound metabolized” in data set [6]. Besides, the “Bacterial Biotransformation” value in data set [7], in data set [8] and in data set [9] was “Compound NOT metabolized” throughout.

In the case of `CC(=O)CC(c1ccccc1)c1c(O)c2ccccc2oc1=O` (centres undefined) [WARFARIN], the “Bacterial Biotransformation” value in data set [1] is “Compound metabolized”; in data set [2] it was “Compound metabolized”; in data set [3], “Compound NOT metabolized”; in data set [4], “Compound NOT metabolized”; in data set [5], “Compound metabolized”; in [6], “Compound metabolized”. Further, the “Bacterial Biotransformation” value in data set [7], in [8] and in data set [9] was “Compound metabolized” in each case.

Regarding `Cc1ccc(-c2nc3ccc(C)cn3c2CC(=O)N(C)C)cc1` [ZOLPIDEM], the “Bacterial Biotransformation” value in data set [1] is on record as “Compound metabolized”; in data set [2], “Compound NOT metabolized”; in [3] it was “Compound NOT metabolized”; in [4], “Compound NOT metabolized”; in data set [5], “Compound NOT metabolized”; in [6] it was “Compound NOT metabolized”. Besides, the “Bacterial Biotransformation” value was “Compound metabolized” in data set [7], “Compound NOT metabolized” in [8] and “Compound NOT metabolized” in data set [9].
